Literature values, collected in patent US20180177700A1, “HAIR REMOVAL COMPOSITIONS AND METHODS” (priority 2016, published 2018).
Where a name gives a salt, the structure may show the parent alone.

Experiments:
[1] = system: unwanted facial hair
[2] = system: body hair; settings: all different types of body hair (scalp, facial, axillary, pubic, leg)
[3] = topical, 24 weeks, over 594 patients, versus placebo

Which “time after drug application at which hair growth returned to baseline (transient inhibition)” value ([1]; after the drug application) does the source give for NCCCC(N)(C(=O)O)C(F)F (centres unmarked) [eflornithine hydrochloride] here?
Its value is “eight”.

What about the “patients with "Clear" physician reported change in unwanted facial hair” value [1, 3] of the same molecule?
The value was 5%.

And the “patients with "Improved" physician reported change in unwanted facial hair” value [1, 3]?
The value was 26%.

And the “patients with "Marked" physician reported change in unwanted facial hair” value [1, 3]?
Its value is 27%.

With CS(=O)(=O)OCCCCOS(C)(=O)=O [busulfan] as the molecule, how does the hair loss induced [2] read?
The hair loss induced was about 100%.
